These results are taken from patent US9586968B2, “Bicycloamine-substituted-N-benzenesulfonamide compounds with selective activity in voltage-gated sodium channels” (Merck Sharp & Dohme Corp., priority 2013, dated 2017).

The target in one test is T1, human Nav1.7 (Homo sapiens, UniProt Q15858).
T1 construct: expressed in transfected cells
Briefly: PatchXpress automated patch-clamp, inactivated state block of Nav1.7. The class given is cell-based. The settings on record: channels stably expressed in HEK 293 cells, 22° C., read-out: potency for the Nav 1.7 sodium ion channel (as measured by PatchXpress). As for the experimental part: (§1) Compounds were tested on human Nav1.7 and Nav1.5 channels stably expressed in HEK 293 cells. Activity toward Nav 1.7 and Nav 1.5 channels was assessed using the following assay methodology.
(§2) Sodium Current Measurements on the PatchXpress 7000®:
(§3) To measure inactivated state block of sodium channels, test compounds were characterized in an automated PatchXpress® assay (Molecular Devices) using a double-pulse protocol on human Nav1.7 and Nav1.5 channels stably expressed in HEK 293 cells. Cells were held at a potential 20 mV negative to V0.5 inact. An 8000 ms pre-pulse 7 mV positive to V0.5 inact was given followed by a hyperpolarizing 2 ms pulse to −120 mV and a 20 ms test pulse to −20 mV. Protocol was applied to cells in the absence, presence of compound and after washout. The temperature of PatchXpress instruments was maintained at 22° C. The following recording solutions were used. Internal solution (mM): 30 CsCl, 5 HEPES, 10 EGTA, 120 CsF, 5 NaF, 2 MgCl2. External solution (mM): 120 NMDG, 40 NaCl, 1 KCl, 0.5 MgCl2, 5 HEPES, 2.7 CaCl2.
(§4) For all electrophysiology experiments, offline analysis was used to correct for current rundown and to determine percent inhibition as a function of drug concentration. IC50 values were determined by fitting to the Hill equation.
For orientation: In patch-clamp work, channel activity is measured electrically.

For a further test, the target named is T2, human Nav1.5 (Homo sapiens, UniProt Q14524).
T2 construct: expressed in transfected cells
Briefly: PatchXpress automated patch-clamp, inactivated state block of Nav1.5 (selectivity). The settings on record: determined by PatchXpress measurement, HEK 293 cells. The class given is cell-based. As for the experimental part: as §1, §2, §3, §4

T2 sequence (Q14524 whole entry): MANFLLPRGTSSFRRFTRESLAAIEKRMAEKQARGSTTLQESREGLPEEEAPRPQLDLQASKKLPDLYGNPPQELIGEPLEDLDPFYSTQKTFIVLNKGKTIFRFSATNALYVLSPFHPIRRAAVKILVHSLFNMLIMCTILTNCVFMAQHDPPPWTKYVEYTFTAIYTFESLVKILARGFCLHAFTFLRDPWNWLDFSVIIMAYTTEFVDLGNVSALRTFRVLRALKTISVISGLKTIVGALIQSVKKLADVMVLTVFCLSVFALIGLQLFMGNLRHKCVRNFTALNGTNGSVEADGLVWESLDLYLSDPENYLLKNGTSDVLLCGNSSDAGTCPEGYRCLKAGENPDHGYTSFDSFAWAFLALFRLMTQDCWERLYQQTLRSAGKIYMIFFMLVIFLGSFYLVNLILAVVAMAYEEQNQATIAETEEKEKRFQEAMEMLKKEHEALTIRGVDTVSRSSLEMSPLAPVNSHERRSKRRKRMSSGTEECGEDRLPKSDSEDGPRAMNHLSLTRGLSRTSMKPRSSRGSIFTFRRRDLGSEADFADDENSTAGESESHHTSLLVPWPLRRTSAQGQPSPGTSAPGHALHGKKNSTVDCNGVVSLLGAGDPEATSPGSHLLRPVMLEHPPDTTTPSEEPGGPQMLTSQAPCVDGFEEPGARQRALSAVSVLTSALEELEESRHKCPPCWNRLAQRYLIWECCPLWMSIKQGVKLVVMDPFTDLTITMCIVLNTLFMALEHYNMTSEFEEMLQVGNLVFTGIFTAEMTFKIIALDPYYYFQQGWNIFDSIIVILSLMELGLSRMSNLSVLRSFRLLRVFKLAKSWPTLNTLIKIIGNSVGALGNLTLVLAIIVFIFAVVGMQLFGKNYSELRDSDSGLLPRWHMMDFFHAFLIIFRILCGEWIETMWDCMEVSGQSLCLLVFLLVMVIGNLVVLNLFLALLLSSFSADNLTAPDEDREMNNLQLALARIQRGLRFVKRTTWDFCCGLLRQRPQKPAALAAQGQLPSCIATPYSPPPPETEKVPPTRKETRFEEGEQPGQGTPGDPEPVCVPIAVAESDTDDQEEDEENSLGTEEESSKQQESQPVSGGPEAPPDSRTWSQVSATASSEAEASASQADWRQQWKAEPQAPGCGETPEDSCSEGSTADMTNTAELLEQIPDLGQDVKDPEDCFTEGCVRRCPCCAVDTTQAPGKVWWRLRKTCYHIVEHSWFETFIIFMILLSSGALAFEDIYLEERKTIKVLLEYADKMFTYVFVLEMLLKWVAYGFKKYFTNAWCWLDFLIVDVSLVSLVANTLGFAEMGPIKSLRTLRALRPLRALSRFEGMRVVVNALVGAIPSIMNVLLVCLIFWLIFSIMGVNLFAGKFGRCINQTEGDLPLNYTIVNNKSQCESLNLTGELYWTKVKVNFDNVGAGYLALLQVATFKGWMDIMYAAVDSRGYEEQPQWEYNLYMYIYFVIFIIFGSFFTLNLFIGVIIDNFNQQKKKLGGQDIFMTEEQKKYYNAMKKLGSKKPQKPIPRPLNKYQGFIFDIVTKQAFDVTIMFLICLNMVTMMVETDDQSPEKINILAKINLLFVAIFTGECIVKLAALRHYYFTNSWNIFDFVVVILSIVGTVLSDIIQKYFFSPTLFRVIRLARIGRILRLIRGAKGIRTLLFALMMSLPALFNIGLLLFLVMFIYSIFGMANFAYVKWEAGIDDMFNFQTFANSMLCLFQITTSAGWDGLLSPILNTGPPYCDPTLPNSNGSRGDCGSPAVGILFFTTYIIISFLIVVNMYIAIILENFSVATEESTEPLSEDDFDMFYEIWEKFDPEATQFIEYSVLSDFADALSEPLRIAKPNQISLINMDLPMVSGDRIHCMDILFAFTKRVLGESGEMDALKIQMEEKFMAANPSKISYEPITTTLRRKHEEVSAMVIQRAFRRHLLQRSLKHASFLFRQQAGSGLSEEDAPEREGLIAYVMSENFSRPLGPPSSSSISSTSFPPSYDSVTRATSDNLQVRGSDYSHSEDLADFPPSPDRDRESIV
T1 sequence (Q15858 whole entry): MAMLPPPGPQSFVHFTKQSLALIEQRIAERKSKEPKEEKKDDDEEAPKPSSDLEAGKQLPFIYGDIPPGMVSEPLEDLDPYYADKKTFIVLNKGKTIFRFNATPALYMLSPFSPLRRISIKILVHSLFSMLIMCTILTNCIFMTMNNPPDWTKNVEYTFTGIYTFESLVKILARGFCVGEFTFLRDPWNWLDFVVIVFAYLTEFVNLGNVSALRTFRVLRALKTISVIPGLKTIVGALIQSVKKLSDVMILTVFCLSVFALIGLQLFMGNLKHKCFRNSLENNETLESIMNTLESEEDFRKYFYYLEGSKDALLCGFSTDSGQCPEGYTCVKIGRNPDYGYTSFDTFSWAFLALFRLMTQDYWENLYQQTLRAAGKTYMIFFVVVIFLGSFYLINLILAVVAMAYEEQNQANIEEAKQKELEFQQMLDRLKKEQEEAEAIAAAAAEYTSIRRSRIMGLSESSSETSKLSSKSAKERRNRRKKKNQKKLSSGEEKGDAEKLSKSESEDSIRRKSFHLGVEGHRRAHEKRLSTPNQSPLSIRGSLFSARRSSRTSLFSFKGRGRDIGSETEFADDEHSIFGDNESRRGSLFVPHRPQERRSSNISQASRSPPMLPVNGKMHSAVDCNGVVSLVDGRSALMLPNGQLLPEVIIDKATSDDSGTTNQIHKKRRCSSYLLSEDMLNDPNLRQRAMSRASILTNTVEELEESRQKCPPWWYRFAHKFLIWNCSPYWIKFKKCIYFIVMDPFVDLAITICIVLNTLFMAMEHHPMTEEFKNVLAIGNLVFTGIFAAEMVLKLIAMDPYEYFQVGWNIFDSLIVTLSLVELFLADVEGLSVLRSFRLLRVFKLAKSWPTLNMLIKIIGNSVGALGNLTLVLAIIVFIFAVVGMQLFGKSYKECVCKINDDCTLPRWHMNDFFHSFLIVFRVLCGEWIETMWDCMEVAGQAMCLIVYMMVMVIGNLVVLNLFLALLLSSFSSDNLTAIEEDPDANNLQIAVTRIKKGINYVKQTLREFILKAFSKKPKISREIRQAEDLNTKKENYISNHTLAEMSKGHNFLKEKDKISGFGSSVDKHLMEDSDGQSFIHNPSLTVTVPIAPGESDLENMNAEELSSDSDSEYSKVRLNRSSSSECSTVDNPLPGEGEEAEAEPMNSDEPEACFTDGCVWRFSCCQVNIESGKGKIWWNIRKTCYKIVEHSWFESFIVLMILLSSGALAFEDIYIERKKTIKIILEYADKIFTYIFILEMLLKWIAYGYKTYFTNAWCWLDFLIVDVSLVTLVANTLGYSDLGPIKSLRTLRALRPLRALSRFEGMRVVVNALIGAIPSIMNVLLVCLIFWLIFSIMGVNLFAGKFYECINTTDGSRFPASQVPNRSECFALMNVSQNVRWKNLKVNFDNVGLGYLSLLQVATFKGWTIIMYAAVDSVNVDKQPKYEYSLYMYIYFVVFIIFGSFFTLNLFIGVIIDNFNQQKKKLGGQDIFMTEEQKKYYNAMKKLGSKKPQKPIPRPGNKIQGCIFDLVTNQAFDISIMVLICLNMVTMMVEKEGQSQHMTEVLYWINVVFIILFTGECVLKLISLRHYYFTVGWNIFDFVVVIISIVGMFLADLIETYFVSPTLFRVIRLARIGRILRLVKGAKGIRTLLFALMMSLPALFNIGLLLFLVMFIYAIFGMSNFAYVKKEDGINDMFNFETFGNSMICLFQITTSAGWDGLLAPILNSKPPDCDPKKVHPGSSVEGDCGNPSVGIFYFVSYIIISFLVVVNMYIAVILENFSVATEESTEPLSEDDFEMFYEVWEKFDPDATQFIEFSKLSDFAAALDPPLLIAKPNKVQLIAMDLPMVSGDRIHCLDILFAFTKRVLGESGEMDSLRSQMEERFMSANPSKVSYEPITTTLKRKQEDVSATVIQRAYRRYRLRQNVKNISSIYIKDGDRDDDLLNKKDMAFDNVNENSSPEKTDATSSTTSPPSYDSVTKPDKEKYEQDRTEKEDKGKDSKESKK

On to `CC1CCC2(CNc3ccc(S(=O)(=O)Nc4ncc(F)s4)cc3Cl)CCCN12` (single isomer, unassigned) [Ex11-12-A, 3-chloro-N-(5-fluorothiazol-2-yl)-4-((((3S,7aS or 3R,7aR)-3-methylhexahydro-1H-pyrrolizin-7a-yl)methyl)amino)benzene-sulfonamide], for which the IC50 at human Nav1.7 was 22 nM. In addition, the “ratio of Nav1.7 potency:Nav 1.5 potency” value on human Nav1.5 is recorded as 1335.
Regarding `COc1ccc(CC2CN3CCCC3(CNc3cc(F)c(S(=O)(=O)Nc4ncc(F)s4)cc3Cl)C2)cc1` (single isomer, unassigned) [Ex15-12-A, 5-chloro-2-fluoro-N-(5-fluorothiazol-2-yl)-4-((((2R,7aS or 2S,7aR)-2-(4-methoxybenzyl)hexahydro-1H-pyrrolizin-7a-yl)-methyl)amino)benzene-sulfonamide], the IC50 on human Nav1.7 is 8 nM. In addition, the “ratio of Nav1.7 potency:Nav 1.5 potency” value at human Nav1.5 worked out at 282.
Turning to `CCc1cc(S(=O)(=O)Nc2ncc(F)s2)c(F)cc1NCC12CCCN1CCC2` [Ex18-8, 5-ethyl-2-fluoro-N-(5-fluorothiazol-2-yl)-4-(((hexahydro-1H-pyrrolizin-7a-yl)-methyl)amino)-benzenesulfonamide], the IC50 at human Nav1.7 came to 5 nM. At human Nav1.5, the “ratio of Nav1.7 potency:Nav 1.5 potency” value was 2595.
For `O=S(=O)(Nc1ncc(F)s1)c1ccc(NCC23CCCN2CC2(CC2)C3)c(C(F)(F)F)c1` (single isomer, unassigned) [Ex13-12-A, (S or R)-N-(5-fluorothiazol-2-yl)-4-(((hexahydrospiro-[cyclopropane-1,2′-pyrrolizin]-7a′-yl)methyl)-amino)-3-(trifluoromethyl)-benzenesulfonamide], in that order: 22 nM and 756.
Taken in the same sequence, the figures for `COc1ccc([C@H]2CN3CCC[C@]3(CNc3cc(F)c(S(=O)(=O)Nc4nccs4)cc3Cl)C2)cc1` (single isomer, unassigned) [Ex16-12-B] were 21 nM and 708.
Taken in the same sequence, the figures for `Cc1cc(S(=O)(=O)Nc2nccs2)c(F)cc1NCC12CCCN1CCC2` [Ex1-15, 2-fluoro-4-(((hexahydro-1H-pyrrolizin-7a-yl)methyl)amino)-5-methyl-N-(thiazol-2-yl)benzenesulfonamide] were 34 nM and 1149.
In the case of `N#Cc1cc(NCC23CCCN2CCC3)c(Cl)cc1S(=O)(=O)Nc1nccs1` [Ex12-6, 5-chloro-2-cyano-4-(((hexahydro-1H-pyrrolizin-7a-yl)methyl)amino)-N-(thiazol-2-yl)benzenesulfonamide], the IC50 on human Nav1.7 was 95 nM. In addition, the “ratio of Nav1.7 potency:Nav 1.5 potency” value on human Nav1.5 came out at 180.
For `N#Cc1cc(S(=O)(=O)Nc2ncc(Cl)s2)c(F)cc1NCC12CCCN1CCC2` [Ex1-11, N-(5-chloro-1,3-thiazol-2-yl)-5-cyano-2-fluoro-4-[(tetrahydro-1H-pyrrolizin-7a(5H)-ylmethyl)amino]benzene-sulfonamide], in that order: 35 nM and 469.
Taken in the same sequence, the figures for `CC1CN2CCCC2(CNc2ccc(S(=O)(=O)Nc3nccs3)cc2Cl)C1` [Ex4-11, 3-chloro-4-((((2S/7aR and 2R,7aS)-2-methylhexahydro-1H-pyrrolizin-7a-yl)methyl)amino)-N-(thiazol-2-yl)benzenesulfonamide] were 5 nM and 7180.
Regarding `CC1CCC2(CNc3ccc(S(=O)(=O)Nc4nccs4)cc3C(F)(F)F)CCCN12` (single isomer, unassigned) [Ex11-10-B, 4-((((3R,7aR or 3S,7aS)-3-methylhexahydro-1H-pyrrolizin-7a-yl)methyl)-amino)-N-(thiazol-2-yl)-3-(trifluoromethyl)-benzenesulfonamide], the IC50 on human Nav1.7 is 40 nM. Further, at human Nav1.5, the “ratio of Nav1.7 potency:Nav 1.5 potency” value stood at 755.
Turning to `CCOC(=O)c1cnc(NS(=O)(=O)c2cc(Cl)c(NCC34CCCN3CCC4)cc2F)s1` [Ex1-16, ethyl 2-(5-chloro-2-fluoro-4-(((hexahydro-1H-pyrrolizin-7a-yl)methyl)amino)phenylsulfonamido)thiazole-5-carboxylate], on human Nav1.7, the IC50 was found to be 62 nM. In addition, the “ratio of Nav1.7 potency:Nav 1.5 potency” value at human Nav1.5 was 484.
For `COc1ccc(CC2CN3CCCC3(CNc3cc(F)c(S(=O)(=O)Nc4ncc(F)s4)cc3Cl)C2)cc1` (single isomer, unassigned) [Ex15-12-B, 5-chloro-2-fluoro-N-(5-fluorothiazol-2-yl)-4-((((2S,7aR or 2R,7aS)-2-(4-methoxybenzyl)hexahydro-1H-pyrrolizin-7a-yl)methyl)amino)benzene-sulfonamide], in that order: 66 nM and 99.
For the compound `Cc1cc(NCC23CCCN2CCC3)c(Cl)cc1S(=O)(=O)Nc1nccs1` [Ex12-7, 5-chloro-4-(((hexahydro-1H-pyrrolizin-7a-yl)methyl)amino)-2-methyl-N-(thiazol-2-yl)benzenesulfonamide], the IC50 at human Nav1.7 was found to be 26 nM. The “ratio of Nav1.7 potency:Nav 1.5 potency” value on human Nav1.5 came out at 163.
For `COc1ccc([C@@H]2CN3CCC[C@@]3(CNc3cc(F)c(S(=O)(=O)Nc4nccs4)cc3Cl)C2)cc1` (single isomer, unassigned) [Ex16-12-A], in that order: 51 nM and 348.
Taken in the same sequence, the figures for `O=S(=O)(Nc1nccs1)c1cc(Cl)c(NC[C@]23CCCN2CC2(C3)OCCO2)cc1F` (single isomer, unassigned) [Ex10-7-A] were 10 nM and 3074.
Taken in the same sequence, the figures for `O=S(=O)(Nc1nccs1)c1cc(Cl)c(NC[C@@]23CCCN2CC2(C3)OCCO2)cc1F` (single isomer, unassigned) [Ex10-7-B] were 32 nM and 935.
As to `CC1(C)CN2CCCC2(CNc2ccc(S(=O)(=O)Nc3nccs3)cc2C(F)(F)F)C1` (single isomer, unassigned) [Ex8-23-A, (R or S) 4-(((2,2-dimethylhexahydro-1H-pyrrolizin-7a-yl)methyl)-amino)-N-(thiazol-2-yl)-3-(trifluoromethyl)benzene-sulfonamide], the IC50 at human Nav1.7 was found to be 172 nM. Moreover, the “ratio of Nav1.7 potency:Nav 1.5 potency” value on human Nav1.5 is listed as 175.
For `O=S(=O)(Nc1nccs1)c1cc(F)c(NCC23CCCN2CCC3)cc1Cl` [Ex1-18, 2-chloro-5-fluoro-4-(((hexahydro-1H-pyrrolizin-7a-yl)methyl)amino)-N-(thiazol-2-yl)benzenesulfonamide], in that order: 129 nM and 462.
In the case of `CC1CN2CCCC2(CNc2ccc(S(=O)(=O)Nc3nccs3)cc2C#N)C1` (racemic) [Ex4-8, 3-cyano-4-{[((2S,7aR and 2R,7aS)-2-methyltetrahydro-1H-pyrrolizin-7a(5H)-yl)methyl]amino}-N-(1,3-thiazol-2-yl)benzenesulfonamide], the IC50 at human Nav1.7 came to 27 nM. The “ratio of Nav1.7 potency:Nav 1.5 potency” value on human Nav1.5 worked out at 1109.
Consider `O=S(=O)(Nc1ncc(Br)s1)c1cc(Cl)c(NCC23CCCN2CCC3)cc1F` [Ex1-13, N-(5-bromothiazol-2-yl)-5-chloro-2-fluoro-4-(((hexahydro-1H-pyrrolizin-7a-yl)methyl)amino)benzene-sulfonamide], for which the IC50 at human Nav1.7 is 43 nM. In addition, the “ratio of Nav1.7 potency:Nav 1.5 potency” value on human Nav1.5 turned out to be 1507.
In the case of `CC1CN2CCCC2(CNc2cc(F)c(S(=O)(=O)Nc3ncc(Cl)s3)cc2Cl)C1` [Ex4-10, 5-chloro-N-(5-chlorothiazol-2-yl)-2-fluoro-4-((((2S,7aR and 2R,7aS)-2-methylhexahydro-1H-pyrrolizin-7a-yl)methyl)-amino)benzene-sulfonamide], the IC50 at human Nav1.7 was 10 nM. At human Nav1.5, the “ratio of Nav1.7 potency:Nav 1.5 potency” value is given as 2681.
For `O=S(=O)(Nc1ncc(Cl)s1)c1cc(Cl)c(NCC23CCCN2CC2(C3)OCCO2)cc1F` (single isomer, unassigned) [Ex10-9-B, (R or S)-5-chloro-N-(5-chloro-thiazol-2-yl)-2-fluoro-4-(((hexahydrospiro[[1,3]-dioxolane-2,2′-pyrrolizin]-7a′-yl)-methyl)amino)-benzenesulfonamide], the IC50 on human Nav1.7 was found to be 108 nM. Further, at human Nav1.5, the “ratio of Nav1.7 potency:Nav 1.5 potency” value is listed as 277.
